Measured values taken from ChEMBL document CHEMBL1212931, “Identification of a naturally occurring rexinoid, honokiol, that activates the retinoid X receptor” (J Nat Prod, 2010).
The source made the active and inactive calls. The rule behind the calls is not given here.

Legend:
[1] = molecular target: T1, Retinoic acid receptor RXR-alpha (Homo sapiens) (UniProt P19793); test: Binding affinity to RXRalpha
T1 sequence (whole entry): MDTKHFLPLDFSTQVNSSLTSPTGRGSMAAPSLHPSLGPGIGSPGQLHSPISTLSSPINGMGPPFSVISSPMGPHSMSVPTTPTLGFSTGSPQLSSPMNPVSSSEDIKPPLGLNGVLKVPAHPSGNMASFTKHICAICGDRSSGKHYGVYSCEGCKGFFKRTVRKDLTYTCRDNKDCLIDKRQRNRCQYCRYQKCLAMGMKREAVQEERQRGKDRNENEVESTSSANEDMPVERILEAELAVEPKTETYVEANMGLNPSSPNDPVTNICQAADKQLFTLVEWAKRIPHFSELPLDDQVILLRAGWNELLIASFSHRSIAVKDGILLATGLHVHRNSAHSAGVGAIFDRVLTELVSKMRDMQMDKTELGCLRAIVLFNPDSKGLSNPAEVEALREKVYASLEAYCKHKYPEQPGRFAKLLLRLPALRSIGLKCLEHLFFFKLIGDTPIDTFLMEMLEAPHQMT

[2] = molecular target: T2, Retinoic acid receptor RXR-alpha (Mus musculus) (UniProt P28700); test: Agonist activity at RXRalpha in mouse peritoneal macrophages assessed as ApoAI-mediated cholesterol efflux after 24 hrs […]; format: functional
T2 sequence (whole entry): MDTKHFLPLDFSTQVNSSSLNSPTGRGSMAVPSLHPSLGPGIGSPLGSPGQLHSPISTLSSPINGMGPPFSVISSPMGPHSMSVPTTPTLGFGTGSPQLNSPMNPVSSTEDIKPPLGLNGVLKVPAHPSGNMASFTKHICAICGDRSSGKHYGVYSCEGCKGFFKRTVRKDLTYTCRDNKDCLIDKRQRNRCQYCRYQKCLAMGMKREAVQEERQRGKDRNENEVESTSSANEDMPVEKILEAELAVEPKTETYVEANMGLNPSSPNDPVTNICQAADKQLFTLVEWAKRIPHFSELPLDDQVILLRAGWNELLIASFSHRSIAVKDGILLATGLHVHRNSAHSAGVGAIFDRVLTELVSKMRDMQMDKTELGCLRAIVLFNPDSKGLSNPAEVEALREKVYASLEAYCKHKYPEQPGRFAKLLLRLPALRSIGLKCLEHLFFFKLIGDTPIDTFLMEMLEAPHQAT

RAW264.7 [3] = test: Activation of RXR/LXR heterodimer in mouse RAW264.7 cells assessed as induction of ABCA1 mRNA expression by RT-PCR; format: cell-based
[4] = molecular target: T3, Peroxisome proliferator-activated receptor delta (Homo sapiens) (UniProt Q03181); test: Agonist activity at PPARdelta in HEK293 cells assessed as transcriptional activation after 48 hrs by luciferase reporter gene assay; format: functional, cell-based
T3 sequence (whole entry): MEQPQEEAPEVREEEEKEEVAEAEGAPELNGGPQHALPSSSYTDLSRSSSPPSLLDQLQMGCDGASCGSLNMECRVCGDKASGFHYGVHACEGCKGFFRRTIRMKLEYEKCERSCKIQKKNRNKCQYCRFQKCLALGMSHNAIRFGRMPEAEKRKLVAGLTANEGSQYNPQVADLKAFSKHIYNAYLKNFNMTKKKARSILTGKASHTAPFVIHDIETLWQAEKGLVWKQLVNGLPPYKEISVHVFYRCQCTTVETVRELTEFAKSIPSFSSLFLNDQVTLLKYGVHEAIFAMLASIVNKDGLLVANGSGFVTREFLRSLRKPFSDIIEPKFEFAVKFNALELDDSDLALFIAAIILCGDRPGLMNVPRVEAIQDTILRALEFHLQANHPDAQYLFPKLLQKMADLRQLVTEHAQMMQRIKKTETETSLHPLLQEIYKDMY

RAW264.7 [5] = test: Activation of RXR/LXR heterodimer in mouse RAW264.7 cells assessed as induction of ABCG1 mRNA expression by RT-PCR in presence of 22(R)-hydroxycholesterol; format: cell-based
[6] = molecular target: T4, Oxysterols receptor LXR-alpha (Homo sapiens) (UniProt Q13133); test: Agonist activity at LXRalpha in HEK293 cells assessed as transcriptional activation after 48 hrs by luciferase reporter gene assay; format: functional, cell-based
T4 sequence (whole entry): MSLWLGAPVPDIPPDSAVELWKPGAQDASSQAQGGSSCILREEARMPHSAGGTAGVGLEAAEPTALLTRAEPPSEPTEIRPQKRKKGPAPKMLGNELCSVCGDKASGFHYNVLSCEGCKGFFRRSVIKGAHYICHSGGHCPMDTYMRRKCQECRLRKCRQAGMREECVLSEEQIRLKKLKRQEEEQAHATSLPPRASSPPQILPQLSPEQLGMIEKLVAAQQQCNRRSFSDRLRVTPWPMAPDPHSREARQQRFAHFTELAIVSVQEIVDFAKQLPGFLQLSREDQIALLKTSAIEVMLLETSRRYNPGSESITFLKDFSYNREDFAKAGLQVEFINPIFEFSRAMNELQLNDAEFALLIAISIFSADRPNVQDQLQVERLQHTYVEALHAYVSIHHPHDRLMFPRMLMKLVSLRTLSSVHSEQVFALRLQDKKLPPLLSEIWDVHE

RAW264.7 [7] = test: Activation of RXR/LXR heterodimer in mouse RAW264.7 cells assessed as induction of ABCG1 mRNA expression by RT-PCR; format: cell-based
[8] = molecular target: T5, Peroxisome proliferator-activated receptor gamma (Homo sapiens) (UniProt P37231); test: Agonist activity at PPARgamma in HEK293 cells assessed as transcriptional activation after 48 hrs by luciferase reporter gene assay; format: functional, cell-based
T5 sequence (whole entry): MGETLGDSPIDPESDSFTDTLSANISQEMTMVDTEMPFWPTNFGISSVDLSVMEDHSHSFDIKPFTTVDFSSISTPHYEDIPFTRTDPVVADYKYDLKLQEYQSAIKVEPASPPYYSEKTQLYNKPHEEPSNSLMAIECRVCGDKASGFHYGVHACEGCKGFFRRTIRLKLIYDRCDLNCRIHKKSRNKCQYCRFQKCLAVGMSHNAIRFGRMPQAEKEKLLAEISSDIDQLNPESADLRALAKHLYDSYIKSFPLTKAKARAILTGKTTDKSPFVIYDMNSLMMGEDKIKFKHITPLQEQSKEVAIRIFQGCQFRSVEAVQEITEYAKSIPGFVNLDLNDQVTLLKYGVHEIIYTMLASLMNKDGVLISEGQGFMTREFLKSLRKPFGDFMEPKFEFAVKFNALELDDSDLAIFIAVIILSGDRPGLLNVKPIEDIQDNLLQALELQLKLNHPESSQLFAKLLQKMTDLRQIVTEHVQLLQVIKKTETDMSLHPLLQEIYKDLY

[9] = molecular target: T6, Retinoic acid receptor RXR-alpha (Homo sapiens, UniProt P19793); test: Agonist activity at RXRalpha in HEK293 cells assessed as transcriptional activation after 48 hrs by luciferase reporter gene assay; format: functional, cell-based
T6 sequence (P19793 whole entry): T1 sequence (whole entry)

RAW264.7 [10] = test: Activation of RXR/LXR heterodimer in mouse RAW264.7 cells assessed as induction of ABCG1 mRNA expression by RT-PCR RXR antagonist HX531; format: functional, cell-based
RAW264.7 [11] = test: Activation of RXR/LXR heterodimer in mouse RAW264.7 cells assessed as induction of ABCG1 mRNA expression by RT-PCR in presence of RXR antagonist HX531; format: functional, cell-based
[12] = molecular target: T2, Retinoic acid receptor RXR-alpha (Mus musculus); test: Agonist activity at RXRalpha in mouse peritoneal macrophages assessed as ApoAI-mediated cholesterol efflux in presence of 22(R)-hydroxycholesterol after 24 hrs […]; format: functional

| Structure (SMILES) | Activity [1] | Activity [2] | Activity (RAW264.7 [3]) | further results |
| --- | --- | --- | --- | --- |
| CC(C)CC[C@@H](O)[C@@H](C)[C@H]1CC[C@H]2[C@@H]3CC=C4C[C@@H](O)CC[C@]4(C)[C@H]3CC[C@]12C | – | Active | Dose-dependent effect | – |
| C=C(c1ccc(C(=O)O)cc1)c1cc2c(cc1C)C(C)(C)CCC2(C)C | – | Active | Dose-dependent effect | – |

Now from value to compound, other results behind:

| Activity [1] | Activity [2] | Structure (SMILES) | Activity (RAW264.7 [3]) | further results |
| --- | --- | --- | --- | --- |
| Active | – | CC/C=C\C/C=C\C/C=C\C/C=C\C/C=C\C/C=C\CCC(=O)O | – | – |
| Active | – | CC(C)CCC[C@@H](C)CCC[C@@H](C)CCCC(C)CC(=O)O (stereo partly drawn) | – | – |
| Active | Active | C=CCc1ccc(O)c(-c2ccc(O)c(CC=C)c2)c1 [HONOKIOL] | Dose-dependent effect | Activity [4]: inactive; Activity (RAW264.7 [5]): Active; Activity [6]: inactive; Activity (RAW264.7 [7]): Active; Activity [8]: inactive; EC50 [9]: 11.8 µM; Activity (RAW264.7 [10]): inactive; Activity (RAW264.7 [11]): inactive; Activity [12]: inactive |
